We go through 21 molecules from ChEMBL document CHEMBL1201862, “PubChem BioAssay data set” (2004).

Assay [1] deals with HeLa. Nature of the assay: HeLa cell cytotoxicity, dose response, cytotoxicity control for MITF activator project, CellTiter-Glo luminescence, cherry-pick samples (AID 540259). It counts as functional, cell-based. Conditions: Homo sapiens.
The nature of assay [2]: inhibitors of firefly luciferase expression or activity, dose response, H4 neuroglioma cells, luminescence (AID 1990). It counts as functional, cell-based.
A short description of assay [3]: inhibitors of SNCA 5'UTR-driven reporter translation, confirmation, H4 neuroglioma cells, luminescence (AID 1988). It counts as functional, cell-based.
Assay [4] relates to BJ. Nature of the assay: cytotoxicity toward BJ-TERT fibroblasts, dose response, cell-based, RAS-independent, luminescence (AID 1933). It counts as functional. Conditions: Homo sapiens.
Assay [5] relates to BJ. Nature of the assay: cytotoxicity toward BJ-TERT-LT-ST fibroblasts, dose response, cell-based, RAS-independent, luminescence (AID 1935).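 Further: BJ fibroblasts immortalized with TERT plus LT and ST oncogenes.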 The class given is functional. Conditions: Homo sapiens.
The nature of assay [6]: Luminescence Cell-Based Dose Response HTS to Identify Inhibitors of 5'UTR Stem-Loop Driven Prion Protein mRNA Translation in H4 Neuroglioblastoma Cells. [Related pubchem assays: 1827 (Project Summary), 1813 (Primary HTS)]. The class given is functional.
A short description of assay [7]: cytotoxicity in HEK-293T cells, dose response, cytotoxicity control for TCR NF-kB inhibitor project, luminescence, T-cell screen hits (AID 489026).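 Further: cells exposed to compound about 14 hours before the viability readout.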 It counts as functional, cell-based.
A short description of assay [8]: cytotoxicity toward DRD oncogenic fibroblasts, dose response, cell-based, non-viral oncogenic, luminescence (AID 1934). It counts as functional. Conditions: Homo sapiens.
Assay [9] relates to BJ. In words: cells. It counts as functional, cell-based. The note with it: Homo sapiens.
Assay [10] addresses T1, Ubiquitin-conjugating enzyme E2 N (Homo sapiens, UniProt P61088).
T1 sequence (P61088 whole entry): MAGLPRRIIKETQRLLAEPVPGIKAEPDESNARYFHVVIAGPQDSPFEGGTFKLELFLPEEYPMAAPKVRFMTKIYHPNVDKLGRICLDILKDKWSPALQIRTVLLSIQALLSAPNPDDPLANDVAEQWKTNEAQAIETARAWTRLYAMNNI
The class given is functional.

Assay [11] has as its target T2, Bcl-2-related protein A1 (Mus musculus, UniProt Q07440).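 Further: confirmatory dose–response counterscreen on Bfl-1, used to check hits from a UBC13 polyubiquitin inhibitor campaign.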
T2 sequence (Q07440 whole entry): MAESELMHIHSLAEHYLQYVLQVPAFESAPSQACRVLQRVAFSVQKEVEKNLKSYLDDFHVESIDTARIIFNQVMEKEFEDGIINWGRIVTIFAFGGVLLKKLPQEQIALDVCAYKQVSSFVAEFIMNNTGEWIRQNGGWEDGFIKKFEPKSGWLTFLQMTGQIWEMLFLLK
The class given is functional.

Assay [12] deals with T1, Ubiquitin-conjugating enzyme E2 N. It counts as functional. The source holds these as a separate data set.
Assay [13] concerns the target T3, Aminopeptidase N (Plasmodium falciparum FcB1/Columbia, UniProt O96935).
T3 sequence (O96935 whole entry): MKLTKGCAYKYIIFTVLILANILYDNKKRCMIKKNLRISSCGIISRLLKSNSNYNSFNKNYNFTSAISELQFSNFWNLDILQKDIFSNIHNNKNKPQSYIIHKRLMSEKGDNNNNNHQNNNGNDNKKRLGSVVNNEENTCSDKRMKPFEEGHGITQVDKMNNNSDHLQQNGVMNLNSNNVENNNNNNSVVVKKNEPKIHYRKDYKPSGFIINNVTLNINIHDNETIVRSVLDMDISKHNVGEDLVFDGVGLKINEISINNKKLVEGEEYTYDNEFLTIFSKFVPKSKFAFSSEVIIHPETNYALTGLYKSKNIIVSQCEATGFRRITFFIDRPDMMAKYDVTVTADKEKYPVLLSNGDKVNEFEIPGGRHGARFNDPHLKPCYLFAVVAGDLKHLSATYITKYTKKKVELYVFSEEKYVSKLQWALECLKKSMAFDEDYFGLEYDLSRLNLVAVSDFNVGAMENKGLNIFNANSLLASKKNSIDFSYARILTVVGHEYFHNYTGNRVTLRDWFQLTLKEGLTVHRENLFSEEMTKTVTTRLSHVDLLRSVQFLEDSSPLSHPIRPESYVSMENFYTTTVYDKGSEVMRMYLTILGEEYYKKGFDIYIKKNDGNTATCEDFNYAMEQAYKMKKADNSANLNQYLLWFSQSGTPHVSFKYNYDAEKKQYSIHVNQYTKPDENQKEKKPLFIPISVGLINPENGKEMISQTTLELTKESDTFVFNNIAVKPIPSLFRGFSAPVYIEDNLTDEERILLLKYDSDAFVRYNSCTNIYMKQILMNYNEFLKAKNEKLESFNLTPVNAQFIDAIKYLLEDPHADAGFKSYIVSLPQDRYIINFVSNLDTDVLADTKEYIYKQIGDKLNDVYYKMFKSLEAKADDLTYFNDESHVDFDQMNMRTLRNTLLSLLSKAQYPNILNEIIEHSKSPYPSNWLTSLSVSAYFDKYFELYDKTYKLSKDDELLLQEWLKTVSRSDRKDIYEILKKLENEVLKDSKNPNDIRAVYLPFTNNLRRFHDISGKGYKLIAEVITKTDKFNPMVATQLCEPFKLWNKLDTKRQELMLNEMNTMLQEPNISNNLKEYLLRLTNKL
Nature of the assay: P. falciparum M1AAP inhibitors, biochemical, fluorogenic H-Leu-NHMec substrate, 1536-well (AID 1445). More on the design: species or system Plasmodium falciparum 3D7, 3D7.

Assay [14] concerns the target T4, Peroxisome proliferator-activated receptor gamma/Nuclear receptor coactivator 2 (Homo sapiens, UniProt P37231). The class given is functional.
For assay [15], the target named is T5, Peroxisome proliferator-activated receptor gamma/Nuclear receptor coactivator 1 (Homo sapiens, UniProt P37231). The class given is functional.
The target of assay [16] is T6, Peroxisome proliferator-activated receptor gamma/Nuclear receptor coactivator 3 (Homo sapiens, UniProt P37231). It counts as functional.
Assay [17] deals with T5, Peroxisome proliferator-activated receptor gamma/Nuclear receptor coactivator 1. In words: TR-FRET dose response biochemical High Throughput Screening assay for agonists of the steroid receptor coactivator 1 (SRC-1) recruitment by the peroxisome proliferator-activated receptor gamma (PPAR gamma): non-selective agonists. [Related pubchem assays (depositor defined):AID1300, AID1808, AID504735, AID631]. The class given is protein assay. A general note: TR-FRET usually uses a lanthanide donor and a delayed reading to cut background.

The target of assay [18] is T4, Peroxisome proliferator-activated receptor gamma/Nuclear receptor coactivator 2. Nature of the assay: TR-FRET dose response biochemical High Throughput Screening assay for agonists of the steroid receptor coactivator 2 (SRC-2) recruitment by the peroxisome proliferator-activated receptor gamma (PPAR gamma): non-selective agonists. [Related pubchem assays: 1297, 1032 ]. The class given is functional.

Assay [19] has as its target T6, Peroxisome proliferator-activated receptor gamma/Nuclear receptor coactivator 3. In words: TR-FRET dose response biochemical High Throughput Screening assay for agonists of the steroid receptor coactivator 3 (SRC-3) recruitment by the peroxisome proliferator-activated receptor gamma (PPAR gamma): non-selective agonists. [Related pubchem assays: 1301 (Confirmation screen.), 1048 (Primary screen.)]. It counts as functional.

Assay [20] is described as follows: THP-1 cell cytotoxicity, dose response, cytotoxicity control for non-replicating M. tuberculosis project (AID 489025). The class given is functional.
Assay [21] deals with H4. Nature of the assay: Luminescence Cell-Based Dose Response HTS to Identify Activators of 5'UTR Stem-Loop Driven Prion Protein mRNA Translation in H4 Neuroglioblastoma Cells. [Related pubchem assays: 1829 (Project Summary), 1814 (Primary HTS)]. The class given is functional. The note with it: Homo sapiens.
Assay [22] is described as follows: Luminescence Cell-Based Dose Confirmation HTS to Identify Activators of 5'UTR Stem-Loop Driven Alpha-Synuclein mRNA Translation in H4 Neuroglioblastoma Cells. [Related pubchem assays: 1829 (Project Summary), 1814 (Primary HTS)]. The class given is functional.
The nature of assay [23]: Luminescence Cell-Based Dose Response HTS to Identify Activators of Luciferase Translation or Activity in H4 […] Cells. [Related pubchem assays: 1829 (Project Summary), 1814 (Primary HTS)]. It counts as functional.
Assay [24] is described as follows: cells. It counts as functional.
In assay [25] the test system is Escherichia coli. Nature of the assay: microbe, parasite or virus in culture.
For assay [26], the system named is Escherichia coli. In words: microbe, parasite or virus in culture. The source holds these as a separate data set.
Assay [27] relates to HEK293. Nature of the assay: inhibitors of LMP1-driven NF-kB reporter, dose response, cell-based, HEK293, luciferase, cherry-pick (AID 588343). The class given is functional. The note with it: Homo sapiens.
Assay [28] in a line: inhibitors of intracellular T. cruzi replication, confirmation, NIH3T3 host cells, beta-gal luminescence (AID 2044).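 Further: intracellular parasites grown in NIH/3T3 mouse fibroblasts as host cells; luminescent beta-galactosidase reporter signal from transgenic T. cruzi replicating inside host cells; inhibitors lower the luminescence signal.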 The class given is functional, cell-based.
Assay [29] is described as follows: cytotoxicity toward NIH3T3 fibroblasts, dose response, counter-screen, cell-based, ATP luminescence, mouse fibroblasts (AID 2010).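 Further: cells exposed to compound for about 90 hours before reading.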 It counts as functional. On the technique in general: Counterscreens check selectivity or assay interference.
For assay [30], the system named is Vero. In words: cells. Conditions: Chlorocebus sabaeus. The class given is functional.

Active and inactive are the calls of the source.

T4 sequence (P37231 whole entry): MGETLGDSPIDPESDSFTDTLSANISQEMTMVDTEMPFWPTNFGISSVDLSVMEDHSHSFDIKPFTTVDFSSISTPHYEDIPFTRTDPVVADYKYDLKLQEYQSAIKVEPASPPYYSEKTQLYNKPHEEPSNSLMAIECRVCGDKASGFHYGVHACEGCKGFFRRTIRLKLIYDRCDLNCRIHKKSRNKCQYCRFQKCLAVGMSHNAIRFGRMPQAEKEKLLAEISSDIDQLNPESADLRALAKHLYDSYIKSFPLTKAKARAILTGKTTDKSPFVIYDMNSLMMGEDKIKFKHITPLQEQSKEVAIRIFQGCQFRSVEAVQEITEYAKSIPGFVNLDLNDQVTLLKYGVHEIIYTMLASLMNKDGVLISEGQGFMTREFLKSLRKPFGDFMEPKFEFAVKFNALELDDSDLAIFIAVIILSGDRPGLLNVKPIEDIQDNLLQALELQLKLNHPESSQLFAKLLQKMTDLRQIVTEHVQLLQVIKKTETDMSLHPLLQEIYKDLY
T4 sequence (Q15596 whole entry, further chain): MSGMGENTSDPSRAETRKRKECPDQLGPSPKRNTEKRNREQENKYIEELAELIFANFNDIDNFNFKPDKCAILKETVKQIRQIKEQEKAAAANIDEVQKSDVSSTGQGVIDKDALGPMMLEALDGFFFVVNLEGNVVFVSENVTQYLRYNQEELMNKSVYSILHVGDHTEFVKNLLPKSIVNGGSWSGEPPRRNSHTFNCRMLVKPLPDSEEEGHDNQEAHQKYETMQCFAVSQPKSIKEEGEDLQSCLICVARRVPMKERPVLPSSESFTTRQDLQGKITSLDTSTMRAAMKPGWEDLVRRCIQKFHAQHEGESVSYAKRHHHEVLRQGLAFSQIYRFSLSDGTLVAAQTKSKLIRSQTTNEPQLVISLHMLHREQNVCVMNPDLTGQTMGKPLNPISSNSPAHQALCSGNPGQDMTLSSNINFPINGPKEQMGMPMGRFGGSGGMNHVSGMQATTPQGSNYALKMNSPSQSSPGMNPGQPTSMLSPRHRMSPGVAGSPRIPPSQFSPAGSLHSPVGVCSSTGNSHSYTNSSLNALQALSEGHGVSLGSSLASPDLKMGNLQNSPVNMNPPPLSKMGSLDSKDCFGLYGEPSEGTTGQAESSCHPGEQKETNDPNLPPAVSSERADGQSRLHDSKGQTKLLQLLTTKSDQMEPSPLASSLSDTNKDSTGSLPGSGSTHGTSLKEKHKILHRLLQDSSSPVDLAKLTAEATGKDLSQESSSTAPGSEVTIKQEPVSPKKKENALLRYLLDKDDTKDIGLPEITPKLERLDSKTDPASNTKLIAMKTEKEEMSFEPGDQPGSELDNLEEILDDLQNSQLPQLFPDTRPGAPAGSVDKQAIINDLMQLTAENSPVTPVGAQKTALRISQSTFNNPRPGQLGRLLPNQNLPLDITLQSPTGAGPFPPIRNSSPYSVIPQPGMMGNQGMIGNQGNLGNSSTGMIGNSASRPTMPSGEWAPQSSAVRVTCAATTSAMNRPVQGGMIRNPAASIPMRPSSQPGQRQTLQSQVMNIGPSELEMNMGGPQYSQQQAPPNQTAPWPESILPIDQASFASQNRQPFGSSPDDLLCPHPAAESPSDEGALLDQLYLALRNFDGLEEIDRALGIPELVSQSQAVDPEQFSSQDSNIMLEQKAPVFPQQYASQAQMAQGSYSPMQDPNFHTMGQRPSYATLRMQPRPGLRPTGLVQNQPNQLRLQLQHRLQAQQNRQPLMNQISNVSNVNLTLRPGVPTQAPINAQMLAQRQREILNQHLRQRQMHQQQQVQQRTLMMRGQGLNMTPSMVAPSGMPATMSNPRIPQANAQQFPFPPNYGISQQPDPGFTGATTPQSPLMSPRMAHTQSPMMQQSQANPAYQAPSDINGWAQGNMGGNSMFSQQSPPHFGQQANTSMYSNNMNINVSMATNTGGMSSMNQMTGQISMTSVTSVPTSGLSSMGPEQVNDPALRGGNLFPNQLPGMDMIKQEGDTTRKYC
T5 sequence (P37231 whole entry): as the sequence (P37231 whole entry) above
T5 sequence (Q15788 whole entry, further chain): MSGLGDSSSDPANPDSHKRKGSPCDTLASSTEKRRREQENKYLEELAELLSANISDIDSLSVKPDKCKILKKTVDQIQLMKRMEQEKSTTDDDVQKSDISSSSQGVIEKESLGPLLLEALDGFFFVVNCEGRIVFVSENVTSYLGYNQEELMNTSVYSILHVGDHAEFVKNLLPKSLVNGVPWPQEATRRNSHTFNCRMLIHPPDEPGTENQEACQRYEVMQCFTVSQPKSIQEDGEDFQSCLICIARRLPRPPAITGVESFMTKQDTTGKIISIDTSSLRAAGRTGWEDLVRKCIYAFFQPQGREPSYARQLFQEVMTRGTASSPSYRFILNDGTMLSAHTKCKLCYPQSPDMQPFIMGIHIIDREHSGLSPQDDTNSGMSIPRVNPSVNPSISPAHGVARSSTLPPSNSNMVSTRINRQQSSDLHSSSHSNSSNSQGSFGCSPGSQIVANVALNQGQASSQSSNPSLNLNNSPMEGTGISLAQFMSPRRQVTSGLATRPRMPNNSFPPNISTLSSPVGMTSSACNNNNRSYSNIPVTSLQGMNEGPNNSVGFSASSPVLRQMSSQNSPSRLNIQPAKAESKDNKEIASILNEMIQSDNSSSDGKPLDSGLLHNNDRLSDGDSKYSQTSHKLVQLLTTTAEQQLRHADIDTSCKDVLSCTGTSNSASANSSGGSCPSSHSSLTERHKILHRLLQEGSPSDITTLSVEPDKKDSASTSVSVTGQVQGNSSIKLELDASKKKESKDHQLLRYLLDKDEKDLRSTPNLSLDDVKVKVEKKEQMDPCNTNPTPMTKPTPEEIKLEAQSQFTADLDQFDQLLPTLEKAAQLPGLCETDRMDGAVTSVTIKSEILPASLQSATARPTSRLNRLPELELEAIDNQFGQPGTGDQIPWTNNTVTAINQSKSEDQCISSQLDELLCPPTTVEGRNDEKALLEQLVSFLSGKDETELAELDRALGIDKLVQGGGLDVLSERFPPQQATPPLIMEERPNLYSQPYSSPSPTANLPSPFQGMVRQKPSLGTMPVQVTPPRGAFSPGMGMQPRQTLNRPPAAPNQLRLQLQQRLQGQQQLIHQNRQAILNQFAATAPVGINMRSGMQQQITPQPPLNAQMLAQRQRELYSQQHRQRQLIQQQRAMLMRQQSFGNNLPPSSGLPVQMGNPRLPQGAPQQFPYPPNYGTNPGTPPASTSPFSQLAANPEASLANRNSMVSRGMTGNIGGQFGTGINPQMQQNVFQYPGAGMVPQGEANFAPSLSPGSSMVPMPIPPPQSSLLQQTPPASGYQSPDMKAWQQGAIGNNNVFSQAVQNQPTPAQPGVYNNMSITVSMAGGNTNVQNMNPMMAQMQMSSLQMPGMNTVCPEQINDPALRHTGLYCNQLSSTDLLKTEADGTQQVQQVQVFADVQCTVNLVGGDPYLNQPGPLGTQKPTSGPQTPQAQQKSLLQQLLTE

In general, AC50 refers to the midpoint of the concentration-response curve, whichever way the signal moves. Regarding `c1ccc(CCn2nnc3ccccc32)cc1`, in assay [1], the half-maximal activity concentration (AC50) is 207 µM (active).

A word on the EC50: it is the concentration that produces a half-maximal response. By IC50 is commonly meant the point on the concentration scale where inhibition reaches its midpoint. As for `Cc1cccc(N2CCN(C(=O)c3c(-c4ccccc4)noc3C)CC2)c1C`, the EC50 is 10.9 µM (active) in assay [2]; 6.76 µM (active) in assay [3]; 4.1 µM (active) in [4]; 2.67 µM (active) in [5]; 17.1 µM (active) in [6]; 2.58 µM (active) in assay [8]. Also, the EC50 in assay [9] was 89.6 µM (active). The IC50 in assay [7] is > 80 µM (inactive).

Regarding `CCOC(=O)C1=C(COC(=O)c2ncc(Cl)c(Cl)c2Cl)NC(=O)NC1C` (stereo not given), the IC50 is 7.88 µM (active) in [10], > 20 µM (inactive) in assay [11] and 9.23 µM (active) in [12].

Regarding `COc1ccc(NC(=O)C2C3C=CC(C3)C2C(=O)NCc2ccco2)c(OC)c1` (stereo not given), the IC50 in assay [13] is 89.2 µM (active).

In the case of `O=C(C1=C[C@@H](c2ccc(C(F)(F)F)cc2)C[C@@H](OCc2ccc(CO)cc2)O1)N1CCOCC1`, the EC50 in [14], in assay [15] and in assay [16] was > 79.4 µM (not active) in each case.

Take `CCn1c(=O)cc(SCC(=O)Nc2ccc3c(c2)OCCO3)c2ccccc21`: the concentration giving a half-maximal response (EC50) in assay [17] is 7.45 µM (active); in [18], 7.21 µM (active); in assay [19], > 79.4 µM (not active).

Turning to `Cc1cc(CNC(=O)c2cc(COc3ccc(F)c(F)c3)on2)nn1C`, the AC50 in assay [1] is 66.8 µM (active).

With `CCCc1cc(C(=O)Nc2cc(C)ccc2O)no1`, the IC50 in [7] was > 80 µM (inactive).

As to `Cn1cc(Cl)c(-c2nnc(S)n2-c2ccccc2)n1`, the EC50 is > 79.4 µM (inactive) in [17], > 79.4 µM (not active) in [18] and > 79.4 µM (not active) in assay [19].

As usually defined, the CC50 is the concentration at which the toxic effect on the cells reaches its halfway point. For the molecule `COc1cc2c(cc1OC)CN(C(=O)c1ccc([N+](=O)[O-])o1)CC2`, in [20], the CC50 is > 40 µM (active). Besides, the EC50 in assay [21] was > 120 µM (not active); in assay [22], 11.6 µM (active); in assay [23], 37.5 µM (active). Also, the IC50 in [24] was 0.14 µM (active).

Take `CN(C)c1ccnc2sc3c(SCc4ccc(Cl)cc4)ncnc3c12`: the AC50 in assay [1] is 63.3 µM (active).

With `C=C(C)c1cccc(C(C)(C)NC(=O)Nc2ccc(C)cn2)c1`, the IC50 in assay [13] is 41.3 µM (active).

On to `CCOC(=O)c1nc(NCc2ccccc2F)c2ccccc2n1`, for which the AC50 was 52.7 µM (active) in [25], > 150 µM (inactive) in assay [26] and > 350 µM (inactive) in assay [27].

For the molecule `Cn1c(=O)c2c(ncn2Cc2ccc(Cl)c(Cl)c2)n(C)c1=O`, the half-maximal inhibitory concentration (IC50) is 16.3 µM (active) in [10], > 20 µM (inactive) in [11] and 7.05 µM (active) in assay [12].

For the molecule `C=CC[C@@H](CC/C=C/C=C/CC/C=C\[C@@H]1CSC([C@@H]2C[C@@H]2C)=N1)OC`, the IC50 in [7] was > 80 µM (inactive).

With `CC(=O)c1ccc(NC(=O)CSc2nnc(C3CC3)n2C2CC2)cc1`, the AC50 in [25] is 109 µM (active).

For `c1ccc2c(c1)CC/C2=N/Nc1nc2ccccc2[nH]1`, the EC50 in assay [28] was 2.6 µM (active); in assay [14] it was > 79.4 µM (not active); in assay [29], > 30 µM (not active); in [15] it was > 79.4 µM (not active); in [16], > 79.4 µM (not active).

Consider `NC(=O)N/N=C\c1cc(Br)ccc1O`, for which the IC50 in [13] is 50.6 µM (active).

`O=C(N/N=C/c1cccn1-c1ccc([N+](=O)[O-])cc1)c1cccnc1`: the CC50 in assay [30] was > 25 µM (active).

As to `COc1ccc2c(c1)CC/C2=N\OC(=O)c1ccccc1C`, the AC50 in assay [1] is 51.1 µM (active).

`CCN(CC)CCOC(=O)c1ccc(NC(=O)c2cn(-c3ccccc3)nc2-c2cccs2)cc1`: the IC50 in assay [10] is 8.78 µM (active); in [11], > 20 µM (inactive); in [12], > 20 µM (inactive).
